Results published in paper PMC11995216, “End-to-End Backbone Cyclization Enhances Passive Permeability of bRo5 Oligomeric Depsipeptides with Nonlinear Size Dependence” (ACS Medicinal Chemistry Letters, 2025).
Values joined by “and” are separate entries in the source; they are usually repeats but may differ in a detail not shown here. Identical values can stand only once. Like-named read-outs stand apart in the source and are kept apart here.

Assays:
[1] = PAMPA, permeability assay across an artificial membrane; details: for Diffusion (%): PAMPA percent diffusion; for Acceptor Concentration, Ave: after incubation; for Δ % diffusion: increase: difference between percent diffusion of macrocycle vs linear counterpart
[2] = UV detection
[3] = calculated using Supplement Equation 1, UV detection
[4] = test system: PAMPA
[5] = test system: PAMPA; remark: listed apart in the source
[6] = test system: PAMPA; details: UV detection
[7] = test system: PAMPA; details: calculated using Supplement Equation 1, UV detection
[8] = test system: PAMPA; remark: listed apart in the source
[9] = PAMPA, (acceptor + donor)/total analyte, C0 500 uM
[10] = PAMPA, Papp, ratio-based method, mean ± SD, C0 500 uM, UV detection
[11] = PAMPA, Recovery (%), PAMPA, (acceptor + donor)/total analyte, C0 500 uM

CCCCC[C@H](OC(=O)[C@@H](C)N(C)C(=O)[C@H](CCCCC)OC(=O)[C@@H](C)N(C)C(=O)[C@H](CCCCC)OC(=O)[C@@H](C)N(C)C(=O)[C@H](CCCCC)OC(=O)[C@@H](C)N(C)C(=O)[C@H](CCCCC)OC(=O)[C@@H](C)N(C)C(=O)[C@H](CCCCC)OC(=O)[C@@H](C)N(C)C(=O)OC(C)(C)C)C(=O)OCc1ccccc1 [Compound L1.6]
Diffusion (%) ([1]; C0 500 uM): < 5%
Recovery (%) [1, 9]: 84%
Papp [1, 10]: 0.42 ×10⁻⁶ cm/s
recovery [1, 11]: 83.7%
Acceptor Concentration, Ave ([1]; PAMPA, UV detection, C0 500 uM): < 25 µM
Δ % diffusion [1]: ↑2%
% recovery ([2]; Well 1 / %R, Well 1): 87% and 82%
% recovery ([2]; Well 2 / %R, Well 2): 80% and 87%
% recovery ([2]; Well 3 / %R, Well 3): 85% and 82%
% recovery ([2]; Well 4 / %R, Well 4): 83%
% recovery ([2]; Well 5 / %R, Well 5): 81% and 88%
%T ([3]; Well 1 / %T, Well 1): 0.32% and 0.44%
%T ([3]; Well 2 / %T, Well 2): 0.37% and 0.33%
%T ([3]; Well 3 / %T, Well 3): 0.44% and 0.4%
%T ([3]; Well 4 / %T, Well 4): 0.41%
%T ([3]; Well 5 / %T, Well 5): 0.37%
donor concentration after incubation (Well 1 / [donor]): 435 µM and 410 µM
donor concentration after incubation (Well 2 / [donor]): 398 µM and 434 µM
donor concentration after incubation (Well 3 / [donor]): 424 µM and 410 µM
donor concentration after incubation (Well 4 / [donor]): 416 µM and 415 µM
donor concentration after incubation (Well 5 / [donor]): 403 µM and 438 µM
Papp ([4]; Papp (x 10^-6 cm/s) / experiment 1, UV detection): 0.4 ×10⁻⁶ cm/s
Papp ([4]; Papp (x 10^-6 cm/s) / experiment 2, UV detection): 0.44 ×10⁻⁶ cm/s
Papp ([4]; Papp (x 10^-6 cm/s) / experiment 3, UV detection): 0.41 ×10⁻⁶ cm/s
Papp ([4]; Papp (x 10^-6 cm/s) / experiment 5, UV detection): 0.44 ×10⁻⁶ cm/s
Papp ([4]; Papp (x 10^-6 cm/s) / experiment 6, UV detection): 0.43 ×10⁻⁶ cm/s
Papp ([4]; Papp (x 10^-6 cm/s) / experiment 7, UV detection): 0.41 ×10⁻⁶ cm/s
Papp ([4]; Papp (x 10^-6 cm/s) / experiment 8, UV detection): 0.43 ×10⁻⁶ cm/s
Papp ([4]; Papp (x 10^-6 cm/s) / experiment 10, UV detection): 0.4 ×10⁻⁶ cm/s

CCCCC[C@@H]1OC(=O)[C@@H](C)N(C)C(=O)[C@H](CCCCC)OC(=O)[C@@H](C)N(C)C(=O)[C@H](CCCCC)OC(=O)[C@@H](C)N(C)C1=O [Compound C1.3, ent-verticilide B1]
Diffusion (%) ([1]; C0 500 uM): 18.04% and 18.0 ± 1.5%
Recovery (%) [1, 9]: 91%
Papp at 500 uM ([1]; PAMPA, Papp, Ave, ELSD detection, C0 500 uM): 4.24 ×10⁻⁶ cm/s
Papp at 500 uM [1, 10]: 3.64 ± 0.42 ×10⁻⁶ cm/s
recovery at 500 uM [1, 11]: 91.2%
Acceptor Concentration, Ave ([1]; PAMPA, ELSD detection, C0 500 uM): 101.2 µM
Acceptor Concentration, Ave ([1]; PAMPA, UV detection, C0 500 uM): 89.4 µM
Δ % diffusion [1]: ↑3%
Acceptor Concentration ([5]; Acceptor Concentration (uM) – ELSD Detection / [row 1]): 102 µM
Acceptor Concentration ([5]; Acceptor Concentration (uM) – ELSD Detection / [row 2]): 106 µM
Acceptor Concentration ([5]; Acceptor Concentration (uM) – ELSD Detection / [row 3]): 96 µM
Acceptor Concentration ([5]; Acceptor Concentration (uM) – ELSD Detection / [row 4]): 101 µM
Acceptor Concentration ([5]; Acceptor Concentration (uM) – ELSD Detection / [row 5]): 106 µM
Acceptor Concentration ([5]; Acceptor Concentration (uM) – ELSD Detection / [row 6]): 98.1 µM
Acceptor Concentration ([5]; Acceptor Concentration (uM) – ELSD Detection / [row 7]): 103 µM
Acceptor Concentration ([5]; Acceptor Concentration (uM) – ELSD Detection / [row 8]): 90.6 µM
Acceptor Concentration ([5]; Acceptor Concentration (uM) – ELSD Detection / [row 9]): 103 µM
Acceptor Concentration ([5]; Acceptor Concentration (uM) – ELSD Detection / [row 10]): 101 µM
Acceptor Concentration ([5]; Acceptor Concentration (uM) – ELSD Detection / [row 11]): 96.3 µM
Acceptor Concentration ([5]; Acceptor Concentration (uM) – ELSD Detection / [row 12]): 107 µM
Acceptor Concentration ([5]; Acceptor Concentration (uM) – ELSD Detection / [row 13]): 112 µM
Acceptor Concentration ([5]; Acceptor Concentration (uM) – ELSD Detection / [row 14]): 102 µM
Acceptor Concentration ([5]; Acceptor Concentration (uM) – ELSD Detection / [row 15]): 94.9 µM
Acceptor Concentration ([5]; Acceptor Concentration (uM) – UV Detection / [row 1]): 89.6 µM
Acceptor Concentration ([5]; Acceptor Concentration (uM) – UV Detection / [row 2]): 100 µM
Acceptor Concentration ([5]; Acceptor Concentration (uM) – UV Detection / [row 3]): 101 µM
Acceptor Concentration ([5]; Acceptor Concentration (uM) – UV Detection / [row 4]): 93.8 µM
Acceptor Concentration ([5]; Acceptor Concentration (uM) – UV Detection / [row 5]): 88.6 µM
Acceptor Concentration ([5]; Acceptor Concentration (uM) – UV Detection / [row 6]): 79.9 µM
Acceptor Concentration ([5]; Acceptor Concentration (uM) – UV Detection / [row 7]): 82.2 µM
Acceptor Concentration ([5]; Acceptor Concentration (uM) – UV Detection / [row 8]): 95.3 µM
Acceptor Concentration ([5]; Acceptor Concentration (uM) – UV Detection / [row 9]): 83.1 µM
Acceptor Concentration ([5]; Acceptor Concentration (uM) – UV Detection / [row 10]): 88.1 µM
Acceptor Concentration ([5]; Acceptor Concentration (uM) – UV Detection / [row 11]): 84 µM
Acceptor Concentration ([5]; Acceptor Concentration (uM) – UV Detection / [row 12]): 81.4 µM
Acceptor Concentration ([5]; Acceptor Concentration (uM) – UV Detection / [row 13]): 95.3 µM
Acceptor Concentration ([5]; Acceptor Concentration (uM) – UV Detection / [row 14]): 92.2 µM
Acceptor Concentration ([5]; Acceptor Concentration (uM) – UV Detection / [row 15]): 85.4 µM
% recovery ([6]; Well 1 / %R, Well 1): 97% and 94% and 93%
% recovery ([6]; Well 2 / %R, Well 2): 94% and 92%
% recovery ([6]; Well 3 / %R, Well 3): 88% and 89% and 94%
% recovery ([6]; Well 4 / %R, Well 4): 94% and 89% and 90%
% recovery ([6]; Well 5 / %R, Well 5): 87%
%T ([7]; Well 1 / %T, Well 1): 0.44% (2×) and 0.41%
%T ([7]; Well 2 / %T, Well 2): 0.51% and 0.43% (2×)
%T ([7]; Well 3 / %T, Well 3): 0.54% and 0.51% and 0.49%
%T ([7]; Well 4 / %T, Well 4): 0.48% (2×) and 0.45%
%T ([7]; Well 5 / %T, Well 5): 0.48% (2×) and 0.47%
donor concentration after incubation ([8]; Well 1 / [donor]): 396 µM and 390 µM and 380 µM
donor concentration after incubation ([8]; Well 2 / [donor]): 370 µM and 376 µM and 374 µM
donor concentration after incubation ([8]; Well 3 / [donor]): 341 µM and 351 µM and 372 µM
donor concentration after incubation ([8]; Well 4 / [donor]): 377 µM and 362 µM and 356 µM
donor concentration after incubation ([8]; Well 5 / [donor]): 347 µM and 349 µM and 351 µM
Papp ([4]; Papp (x 10^-6 cm/s) – ELSD Detection / [row 1], ELSD Detection): 4.16 ×10⁻⁶ cm/s
Papp ([4]; Papp (x 10^-6 cm/s) – ELSD Detection / [row 2], ELSD Detection): 4.41 ×10⁻⁶ cm/s
Papp ([4]; Papp (x 10^-6 cm/s) – ELSD Detection / [row 3], ELSD Detection): 3.96 ×10⁻⁶ cm/s
Papp ([4]; Papp (x 10^-6 cm/s) – ELSD Detection / [row 4], ELSD Detection): 4.13 ×10⁻⁶ cm/s
Papp ([4]; Papp (x 10^-6 cm/s) – ELSD Detection / [row 5], ELSD Detection): 4.45 ×10⁻⁶ cm/s
Papp ([4]; Papp (x 10^-6 cm/s) – ELSD Detection / [row 6], ELSD Detection): 4.03 ×10⁻⁶ cm/s
Papp ([4]; Papp (x 10^-6 cm/s) – ELSD Detection / [row 9], ELSD Detection): 4.31 ×10⁻⁶ cm/s
Papp ([4]; Papp (x 10^-6 cm/s) – ELSD Detection / [row 10], ELSD Detection): 4.39 ×10⁻⁶ cm/s
Papp ([4]; Papp (x 10^-6 cm/s) – ELSD Detection / [row 11], ELSD Detection): 3.96 ×10⁻⁶ cm/s
Papp ([4]; Papp (x 10^-6 cm/s) – ELSD Detection / [row 12], ELSD Detection): 4.4 ×10⁻⁶ cm/s
Papp ([4]; Papp (x 10^-6 cm/s) – ELSD Detection / [row 13], ELSD Detection): 5.05 ×10⁻⁶ cm/s
Papp ([4]; Papp (x 10^-6 cm/s) – ELSD Detection / [row 14], ELSD Detection): 4.44 ×10⁻⁶ cm/s
Papp ([4]; Papp (x 10^-6 cm/s) – ELSD Detection / [row 15], ELSD Detection): 4.01 ×10⁻⁶ cm/s
Papp ([4]; Papp (x 10^-6 cm/s) – UV Detection / [row 1], UV Detection): 3.32 ×10⁻⁶ cm/s
Papp ([4]; Papp (x 10^-6 cm/s) – UV Detection / [row 2], UV Detection): 4.01 ×10⁻⁶ cm/s
Papp ([4]; Papp (x 10^-6 cm/s) – UV Detection / [row 3], UV Detection): 4.37 ×10⁻⁶ cm/s
Papp ([4]; Papp (x 10^-6 cm/s) – UV Detection / [row 4], UV Detection): 3.67 ×10⁻⁶ cm/s
Papp ([4]; Papp (x 10^-6 cm/s) – UV Detection / [row 5], UV Detection): 3.75 ×10⁻⁶ cm/s
Papp ([4]; Papp (x 10^-6 cm/s) – UV Detection / [row 7], UV Detection): 3.19 ×10⁻⁶ cm/s
Papp ([4]; Papp (x 10^-6 cm/s) – UV Detection / [row 8], UV Detection): 4 ×10⁻⁶ cm/s
Papp ([4]; Papp (x 10^-6 cm/s) – UV Detection / [row 9], UV Detection): 3.36 ×10⁻⁶ cm/s
Papp ([4]; Papp (x 10^-6 cm/s) – UV Detection / [row 10], UV Detection): 3.7 ×10⁻⁶ cm/s
Papp ([4]; Papp (x 10^-6 cm/s) – UV Detection / [row 11], UV Detection): 3.24 ×10⁻⁶ cm/s
Papp ([4]; Papp (x 10^-6 cm/s) – UV Detection / [row 12], UV Detection): 3.17 ×10⁻⁶ cm/s
Papp ([4]; Papp (x 10^-6 cm/s) – UV Detection / [row 13], UV Detection): 3.78 ×10⁻⁶ cm/s
Papp ([4]; Papp (x 10^-6 cm/s) – UV Detection / [row 14], UV Detection): 3.81 ×10⁻⁶ cm/s
Papp ([4]; Papp (x 10^-6 cm/s) – UV Detection / [row 15], UV Detection): 3.57 ×10⁻⁶ cm/s
